In test [1] the target is human RIPK1 (Homo sapiens (Human), UniProt Q13546). Briefly: KINOMEscan binding assay, human RIPK1. The settings on record: Table 21. In outline:
(§1)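 KINOMEscan competition binding using kinase-tagged T7 phage or HEK-293-produced DNA-tagged protein captured on ligand beads, with eluted protein quantified by qPCR. Compounds were run as an 11-point 3-fold series, top 30,000 nM, in 1% DMSO. Kd was fitted with the Hill equation, slope fixed at −1.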

Test [2] concerns the target human RIPK3 (Homo sapiens (Human), UniProt Q9Y572). Briefly: KINOMEscan binding assay, human RIPK3. To be noted: Table 21. The gist of the method:
as §1

We go through 15 molecules from US20250115598A1 (Anaxis Pharma Pty Ltd, priority 2021, published 2025).

Sequence of human RIPK3 (Q9Y572 whole entry): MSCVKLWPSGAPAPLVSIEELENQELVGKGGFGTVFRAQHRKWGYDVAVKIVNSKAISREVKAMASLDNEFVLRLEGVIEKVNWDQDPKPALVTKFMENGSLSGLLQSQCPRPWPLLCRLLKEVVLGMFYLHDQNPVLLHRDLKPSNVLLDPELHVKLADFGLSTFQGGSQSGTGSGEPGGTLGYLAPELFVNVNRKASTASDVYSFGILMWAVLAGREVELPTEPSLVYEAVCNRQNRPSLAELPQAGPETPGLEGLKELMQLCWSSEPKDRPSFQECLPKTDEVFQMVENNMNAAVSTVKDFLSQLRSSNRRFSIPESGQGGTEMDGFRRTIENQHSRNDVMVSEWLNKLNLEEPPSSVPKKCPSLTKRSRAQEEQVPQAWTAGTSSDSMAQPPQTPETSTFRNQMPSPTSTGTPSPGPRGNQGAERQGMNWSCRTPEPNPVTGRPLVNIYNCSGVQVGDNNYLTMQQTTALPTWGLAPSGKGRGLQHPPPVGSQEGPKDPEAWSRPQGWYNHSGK
Sequence of human RIPK1 (Q13546 whole entry): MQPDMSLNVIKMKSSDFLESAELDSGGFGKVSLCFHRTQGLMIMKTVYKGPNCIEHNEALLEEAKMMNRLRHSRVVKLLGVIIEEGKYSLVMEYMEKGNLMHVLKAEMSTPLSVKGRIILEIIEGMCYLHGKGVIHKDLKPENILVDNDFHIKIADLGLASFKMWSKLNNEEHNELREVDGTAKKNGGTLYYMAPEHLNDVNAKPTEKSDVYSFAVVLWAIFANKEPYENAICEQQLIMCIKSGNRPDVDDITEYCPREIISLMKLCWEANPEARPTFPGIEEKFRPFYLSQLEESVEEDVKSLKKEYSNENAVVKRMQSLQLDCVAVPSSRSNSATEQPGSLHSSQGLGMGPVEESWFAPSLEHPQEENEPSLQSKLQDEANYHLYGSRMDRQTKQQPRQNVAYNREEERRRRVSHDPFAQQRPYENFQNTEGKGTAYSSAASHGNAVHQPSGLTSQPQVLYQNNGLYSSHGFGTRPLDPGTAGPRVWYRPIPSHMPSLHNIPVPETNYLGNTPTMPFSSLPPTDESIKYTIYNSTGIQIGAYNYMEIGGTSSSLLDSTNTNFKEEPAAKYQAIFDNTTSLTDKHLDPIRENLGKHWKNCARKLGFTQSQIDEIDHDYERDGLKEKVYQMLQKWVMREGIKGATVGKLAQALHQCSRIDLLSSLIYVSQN

Broadly, the Kd is the constant that tells how readily two partners part at equilibrium. With `C[C@H](Oc1cc(-c2nn(C)c3c(-c4cnn(C5CCOCC5)c4)cnc(N)c23)ccc1NS(C)(=O)=O)c1ccc(F)cc1` [Compound 119, (S)-N-(4-(4-amino-1-methyl-7-(1-(tetrahydro-2H-pyran-4-yl)-1H-pyrazol-4-yl)-1H-pyrazolo[4,3-c]pyridin-3-yl)-2-(1-(4-fluorophenyl)ethoxy)phe-nyl)methanesulfonamide], the Kd in test [1] and in test [2] was more than 10 µM throughout.

Consider `C[C@H](Oc1cc(-c2nn(C)c3c(-c4cnn(C5CCC(F)(F)C5)c4)cnc(N)c23)ccc1NS(=O)(=O)C(F)F)c1ccc(F)cc1` (stereo partly drawn) [Compound 120, N-(4-{4-amino-7-[1-(3,3-difluorocyclopentyl)-1H-pyrazol-4-yl]-1-methyl-1H-pyrazolo[4,3-c]pyridin-3-yl}-2-[(1S)-1-(4-fluorophenyl)ethoxy]phenyl)-1,1-difluoromethanesulfonamide], for which the Kd in test [1] and in test [2] was more than 10 µM each time.

Consider `C[C@H](Oc1cc(-c2nn(C)c3c(-c4cnn(C5CCOCC5)c4)cnc(N)c23)ccc1NS(=O)(=O)N(C)C)c1ccc(F)cc1` [Compound 124], for which the Kd in test [1] and in test [2] was more than 10 µM throughout.

Turning to `C[C@H](Oc1cc(-c2nn(C)c3c(-c4cnn(C5CCOCC5)c4)cnc(N)c23)ccc1NS(=O)(=O)Cc1ccccc1)c1ccc(F)cc1` [Compound 125, (S)-N-(4-(4-amino-1-methyl-7-(1-(tetra-hydro-2H-pyran-4-yl)-1H-pyrazol-4-yl)-1H-pyrazolo[4,3-c]pyridin-3-yl)-2-(1-(4-fluoro-phenyl)eth-oxy)phenyl)-1-phenylmethane-sulfonamide], the Kd in test [1] and in test [2] was more than 10 µM each time.

As to `C[C@H](Oc1cc(-c2nn(C)c3c(-c4ccn(C)c4)cnc(N)c23)ccc1NS(=O)(=O)C(F)F)c1ccc(F)cc1` [Compound 126, (S)-N-(4-(4-amino-1-methyl-7-(1-methyl-1H-pyrrol-3-yl)-1H-pyrazolo[4,3-c]pyridin-3-yl)-2-(1-(4-fluorophenyl)ethoxy)phenyl)-1,1-difluoromethanesulfonamide], the Kd in test [1] and in test [2] was more than 10 µM throughout.

Turning to `C[C@H](Oc1cc(-c2nn(C)c3c(C#CC4CCN(CC(F)(F)F)CC4)cnc(N)c23)ccc1NS(=O)(=O)C(F)F)c1ccc(F)cc1` [Compound 128, (S)-N-(4-(4-amino-1-methyl-7-((1-(2,2,2-trifluoroethyl)piperidin-4-yl)ethynyl)-1H-pyrazolo[4,3-c]pyridin-3-yl)-2-(1-(4-fluorophenyl)ethoxy)phenyl)-1,1-difluoromethane-sulfonamide], the Kd in test [1] and in test [2] was more than 10 µM throughout.

As to `C[C@H](Oc1cc(-c2nn(C)c3c(-c4cnn(C(F)(F)F)c4)cnc(N)c23)ccc1NS(=O)(=O)C(F)F)c1ccc(F)cc1` [Compound 134, (S)-N-(4-(4-amino-1-methyl-7-(1-(trifluoromethyl)-1H-pyrazol-4-yl)-1H-pyrazolo[4,3-c]pyridin-3-yl)-2-(1-(4-fluorophenyl)ethoxy)phenyl)-1,1-difluoromethanesulfonamide], the Kd in test [1] and in test [2] was more than 10 µM each time.

For `COCC(Oc1cc(-c2nn(C)c3c(-c4cnn(C5CCN(C)CC5)c4)cnc(N)c23)ccc1NS(=O)(=O)C(F)F)c1ccc(F)cc1` (stereo not drawn) [Compound 139, N-(4-(4-amino-1-methyl-7-(1-(1-methyl-piperidin-4-yl)-1H-pyrazol-4-yl)-1H-pyrazolo[4,3-c]pyridin-3-yl)-2-(1-(4-fluorophenyl)-2-methoxyethoxy)phe-nyl)-1,1-difluoro-methanesulfonamide], the Kd in test [1] and in test [2] was more than 10 µM each time.

`Cn1nc(-c2ccc(NS(=O)(=O)C(F)F)c(OC3(c4ccc(F)cc4)CC3)c2)c2c(N)ncc(-c3cnn(C4CCOCC4)c3)c21` [Compound 140, N-(4-(4-amino-1-methyl-7-(1-(tetrahydro-2H-pyran-4-yl)-1H-pyrazol-4-yl)-1H-pyrazolo[4,3-c]pyridin-3-yl)-2-(1-(4-fluorophenyl)cyclopropoxy)phenyl)-1,1-difluoromethane-sulfonamide]: the Kd in test [1] and in test [2] was more than 10 µM each time.

In the case of `C[C@H](Oc1cc(-c2nn(C)c3c(N4CCOCC4)cnc(N)c23)ccc1NS(=O)(=O)C(F)F)c1ccc(F)cc1` [Compound 141, N-{4-[4-amino-1-methyl-7-(morpholin-4-yl)-1H-pyrazolo[4,3-c]pyridin-3-yl]-2-[(1S)-1-(4-fluorophenyl)ethoxy]phenyl}-1,1-difluoromethanesulfonamide], the dissociation constant Kd in test [1] and in test [2] was more than 10 µM in each case.

Regarding `C[C@H](Oc1cc(-c2nn(C)c3c(-c4cnn(C5CCN(C)C6(CC6)C5)c4)cnc(N)c23)ccc1NS(=O)(=O)C(F)F)c1ccc(F)cc1` (stereo partly drawn) [Compound 145, N-(4-(4-amino-1-methyl-7-(1-(4-methyl-4-azaspiro[2.5]octan-7-yl)-1H-pyrazol-4-yl)-1H-pyrazolo[4,3-c]pyridin-3-yl)-2-((S)-1-(4-fluorophenyl)ethoxy)phenyl)-1,1-difluoromethanesulfonamide], the Kd in test [1] and in test [2] was more than 10 µM in each case.

Consider `C[C@H](Oc1cc(-c2nn(C)c3c(-c4cnn(C5CCC(F)(F)CC5)c4)cnc(N)c23)ccc1NS(=O)(=O)C(F)F)c1ccc(F)cc1` [Compound 146, (S)-N-(4-(4-amino-7-(1-(4,4-difluorocyclohexyl)-1H-pyrazol-4-yl)-1-methyl-1H-pyrazolo[4,3-c]pyridin-3-yl)-2-(1-(4-fluorophenyl)ethoxy)phenyl)-1,1-difluoromethanesulfonamide], for which the Kd in test [1] and in test [2] was more than 10 µM throughout.

As to `Cc1nn(C2CCN(C)C(C)(C)C2)cc1-c1cnc(N)c2c(-c3ccc(NS(=O)(=O)C(F)F)c(O[C@@H](C)c4ccc(F)cc4)c3)nn(C)c12` (stereo partly drawn) [Compound 156, N-(4-(4-amino-1-methyl-7-(3-methyl-1-(1,2,2-trimethylpiperidin-4-yl)-1H-pyrazol-4-yl)-1H-pyrazolo[4,3-c]pyridin-3-yl)-2-((S)-1-(4-fluorophenyl)ethoxy)phenyl)-1,1-difluoromethanesulfonamide], the Kd in test [1] and in test [2] was more than 10 µM in each case.

As to `Cc1c(-c2cnc(N)c3c(-c4ccc(NS(=O)(=O)C(F)F)c(O[C@@H](C)c5ccc(F)cc5)c4)nn(C)c23)cnn1C1CCN(C)C(C)(C)C1` (stereo partly drawn) [Compound 157, N-(4-(4-amino-1-methyl-7-(5-methyl-1-(1,2,2-trimethylpiperidin-4-yl)-1H-pyrazol-4-yl)-1H-pyrazolo[4,3-c]pyridin-3-yl)-2-((S)-1-(4-fluorophenyl)ethoxy)phenyl)-1,1-difluoromethanesulfonamide], the Kd in test [1] and in test [2] was more than 10 µM each time.

As to `C[C@H](Oc1cc(-c2nn(C)c3c(-c4ccc5c(c4)CC(=O)N5C)cnc(N)c23)ccc1NS(=O)(=O)C(F)F)c1ccc(F)cc1` [Compound 165, (S)-N-(4-(4-amino-1-methyl-7-(1-methyl-2-oxoindolin-5-yl)-1H-pyrazolo[4,3-c]pyridin-3-yl)-2-(1-(4-fluorophenyl)ethoxy)phenyl)-1,1-difluoromethanesulfonamide], the Kd in test [1] and in test [2] was more than 10 µM each time.
